# Test results: publication PMC10550967, “Structure of the ceramide-bound SPOTS complex” (Nature Communications, 2023)
# B1: Lcb2 (enzyme, S. cerevisiae)
# chain: MSTPANYTRVPLCEPEELPDDIQKENEYGTLDSPGHLYQVKSRHGKPLPEPVVDTPPYYISLLTYLNYLILIILGHVHDFLGMTFQKNKHLDLLEHDGLAPWFSNFESFYVRRIKMRIDDCFSRPTTGVPGRFIRCIDRISHNINEYFTYSGAVYPCMNLSSYNYLGFAQSKGQCTDAALESVDKYSIQSGGPRAQIGTTDLHIKAEKLVARFIGKEDALVFSMGYGTNANLFNAFLDKKCLVISDELNHTSIRTGVRLSGAAVRTFKHGDMVGLEKLIREQIVLGQPKTNRPWKKILICAEGLFSMEGTLCNLPKLVELKKKYKCYLFIDEAHSIGAMGPTGRGVCEIFGVDPKDVDILMGTFTKSFGAAGGYIAADQWIIDRLRLDLTTVSYSESMPAPVLAQTISSLQTISGEICPGQGTERLQRIAFNSRYLRLALQRLGFIVYGVADSPVIPLLLYCPSKMPAFSRMMLQRRIAVVVVAYPATPLIESRVRFCMSASLTKEDIDYLLRHVSEVGDKLNLKSNSGKSSYDGKRQRWDIEEVIRRTPEDCKDDKYFVN
# modifications: PLP forms an internal aldimine with K366
# notes: Lcb2, catalytic subunit of serine palmitoyltransferase, S. cerevisiae; also called SPT subunit; source: S. cerevisiae, co-expressed with the other SPOTS subunits under the GAL1 promoter
# Columns and labels:
# [1] = target: T1, SPOTS complex (monomeric, with Sac1) (Saccharomyces cerevisiae, UniProt P25045+P40970+P53224, P53224:S51A/P53224:S52A/P53224:S53A); assay: colorimetric CoA release assay; type: biochemical; settings: 30 µM PLP, 0.008% GDN, pH 6.8, RT, 1 h, FLAG-purified complex (mixture of SPOT and SPOTS), catalytic site Lcb1/Lcb2
# T1 construct: gene LCB1; co-overexpressed in S. cerevisiae (GAL1 promoter); 3xFLAG inserted between codons 9 and 10 of LCB1, kept; GDN-solubilised; monomeric 1:1:1:1:1; Site chains differ by ligand (see pair conditions); The purified sample also holds Sac1-free SPOT monomer and dimer; with Serine palmitoyltransferase-regulating protein TSC3; Phosphoinositide phosphatase SAC1
# T1 sequence (P25045 whole entry, one chain of several): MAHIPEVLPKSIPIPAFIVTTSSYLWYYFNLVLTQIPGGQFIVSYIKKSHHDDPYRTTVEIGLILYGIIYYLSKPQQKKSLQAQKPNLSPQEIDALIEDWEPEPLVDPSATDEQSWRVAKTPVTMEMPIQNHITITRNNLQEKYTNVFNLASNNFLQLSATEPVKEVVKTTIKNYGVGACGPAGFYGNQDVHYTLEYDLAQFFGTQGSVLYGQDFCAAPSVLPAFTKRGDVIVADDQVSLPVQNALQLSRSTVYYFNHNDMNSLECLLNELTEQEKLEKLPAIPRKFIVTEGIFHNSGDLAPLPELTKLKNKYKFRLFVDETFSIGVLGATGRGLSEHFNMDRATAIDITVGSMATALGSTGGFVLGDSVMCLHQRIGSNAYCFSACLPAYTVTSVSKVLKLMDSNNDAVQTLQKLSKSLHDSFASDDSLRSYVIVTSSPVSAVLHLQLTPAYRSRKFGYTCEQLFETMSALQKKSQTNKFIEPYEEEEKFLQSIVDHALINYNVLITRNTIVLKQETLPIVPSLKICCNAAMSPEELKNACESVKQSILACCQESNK
# T1 sequence (P53224 whole entry S51A/S52A/S53A, one chain of several): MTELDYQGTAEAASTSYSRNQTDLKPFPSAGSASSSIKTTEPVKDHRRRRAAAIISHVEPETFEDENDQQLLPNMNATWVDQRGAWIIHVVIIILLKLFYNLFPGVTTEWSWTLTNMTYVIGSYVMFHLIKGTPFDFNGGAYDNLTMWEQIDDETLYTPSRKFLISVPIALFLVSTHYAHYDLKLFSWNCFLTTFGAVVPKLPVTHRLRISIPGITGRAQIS
# T1 sequence (Q3E790 whole entry partner, one chain of several): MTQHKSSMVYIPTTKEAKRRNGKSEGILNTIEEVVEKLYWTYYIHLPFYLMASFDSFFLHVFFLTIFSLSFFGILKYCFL
# T1 sequence (P32368 whole entry partner, one chain of several): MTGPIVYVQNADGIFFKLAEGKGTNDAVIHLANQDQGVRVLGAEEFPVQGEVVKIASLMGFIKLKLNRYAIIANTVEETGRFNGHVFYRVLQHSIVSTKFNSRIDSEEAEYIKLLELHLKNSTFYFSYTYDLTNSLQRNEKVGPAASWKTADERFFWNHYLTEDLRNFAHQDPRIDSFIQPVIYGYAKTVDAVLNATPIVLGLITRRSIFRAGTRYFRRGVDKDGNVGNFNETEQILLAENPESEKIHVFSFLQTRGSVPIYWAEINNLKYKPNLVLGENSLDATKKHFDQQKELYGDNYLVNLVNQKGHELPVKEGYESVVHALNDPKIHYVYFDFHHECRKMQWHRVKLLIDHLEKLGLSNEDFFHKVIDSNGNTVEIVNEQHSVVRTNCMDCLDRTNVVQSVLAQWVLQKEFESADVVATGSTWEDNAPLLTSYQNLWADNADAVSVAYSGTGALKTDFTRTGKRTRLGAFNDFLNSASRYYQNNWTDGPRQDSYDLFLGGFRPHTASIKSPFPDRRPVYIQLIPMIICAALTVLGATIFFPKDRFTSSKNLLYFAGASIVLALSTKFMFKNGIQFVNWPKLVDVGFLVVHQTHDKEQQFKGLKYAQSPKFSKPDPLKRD
# [2] = target: T1, SPOTS complex (monomeric, with Sac1); assay: cryo-EM structure, […] Å; coupled enzymatic assay of bound sterol; type: binding; settings: site: pocket of Lcb1 TM0a helix and Orm1 TM4, three molecules; co-purified endogenous lipid
# SPOT complex (monomer) = target: T2, SPOT complex (monomer) (Saccharomyces cerevisiae, UniProt P25045+P40970+P53224, P53224:S51A/P53224:S52A/P53224:S53A); assay: cryo-EM structure, […] Å; type: binding; settings: site: pocket of Lcb1 TM0a helix and Orm1 TM4, three molecules; co-purified endogenous lipid
# T2 construct: gene LCB1; same preparation as P1, cryo-EM class without Sac1; monomeric; 3xFLAG inserted between codons 9 and 10 of LCB1; GDN-solubilised; Site chains differ by ligand (see pair conditions); with Serine palmitoyltransferase-regulating protein TSC3
# T2 sequence (P25045 whole entry, one chain of several): as the sequence (P25045 whole entry, one chain of several) above
# T2 sequence (P53224 whole entry S51A/S52A/S53A, one chain of several): as the sequence (P53224 whole entry S51A/S52A/S53A, one chain of several) above
# T2 sequence (Q3E790 whole entry partner, one chain of several): as the sequence (Q3E790 whole entry partner, one chain of several) above
# [3] = target: the molecule itself; assay: cryo-EM structure; single-particle cryo-EM of the FLAG-purified complex in GDN, 10 mg/ml; one dataset gave a C2 symmetric SPOT dimer, a SPOT monomer and a SPOTS monomer with Sac1
molecule,measurement,setting,value
N[C@@H](CO)C(=O)O [L-serine],colorimetric CoA release assay,[1]; 100 µM palmitoyl-CoA,release of CoA-SH from the SPT-catalyzed condensation of palmitoyl-CoA and L-serine
CC(C)[C@@H](C)/C=C/[C@@H](C)[C@H]1CC[C@H]2C3=CC=C4C[C@@H](O)CC[C@]4(C)[C@H]3CC[C@]12C [ergosterol],"cryo-EM structure, 3.3 Å; coupled enzymatic assay of bound sterol",[2],Lcb1-TM0a directly interacts with three molecules of ergosterol
same,"cryo-EM structure, 3.4 Å",SPOT complex (monomer),in which three structurally well-resolved ergosterol molecules are positioned
CCCCCCCCCCCCCCCC(=O)SCCNC(=O)CCNC(=O)[C@H](O)C(C)(C)COP(=O)(O)OP(=O)(O)OC[C@H]1O[C@@H](n2cnc3c(N)ncnc32)[C@H](O)[C@@H]1OP(=O)(O)O [palmitoyl-CoA],colorimetric CoA release assay,[1]; 15 mM L-serine,release of CoA-SH from the SPT-catalyzed condensation of palmitoyl-CoA and L-serine
B1,binding result,[3],binds
